{"source": "patent US20260256919A1", "about": "“BIOENHANCERS” (priority 2022, published 2026)", "key": {"CYP2B6": {"target": "T1, CYP2B6 (Homo sapiens, UniProt P20813)", "T1 sequence (P20813 1-491)": "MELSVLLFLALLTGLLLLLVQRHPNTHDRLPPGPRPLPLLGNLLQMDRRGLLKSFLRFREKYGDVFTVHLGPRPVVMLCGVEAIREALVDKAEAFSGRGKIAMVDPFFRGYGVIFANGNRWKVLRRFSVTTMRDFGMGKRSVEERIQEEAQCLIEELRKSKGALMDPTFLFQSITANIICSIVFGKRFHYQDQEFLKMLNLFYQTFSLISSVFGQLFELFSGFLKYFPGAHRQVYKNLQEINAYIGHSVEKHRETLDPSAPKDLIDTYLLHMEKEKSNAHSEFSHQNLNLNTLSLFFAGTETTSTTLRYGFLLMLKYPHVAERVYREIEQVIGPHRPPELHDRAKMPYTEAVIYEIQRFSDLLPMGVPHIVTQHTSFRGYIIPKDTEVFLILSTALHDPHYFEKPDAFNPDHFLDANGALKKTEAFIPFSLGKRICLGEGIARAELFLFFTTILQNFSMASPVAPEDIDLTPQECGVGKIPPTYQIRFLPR", "conditions": "microsomes"}, "CYP1A2": {"target": "T2, CYP1A2 (Homo sapiens, UniProt P05177)", "T2 sequence (P05177 1-516)": "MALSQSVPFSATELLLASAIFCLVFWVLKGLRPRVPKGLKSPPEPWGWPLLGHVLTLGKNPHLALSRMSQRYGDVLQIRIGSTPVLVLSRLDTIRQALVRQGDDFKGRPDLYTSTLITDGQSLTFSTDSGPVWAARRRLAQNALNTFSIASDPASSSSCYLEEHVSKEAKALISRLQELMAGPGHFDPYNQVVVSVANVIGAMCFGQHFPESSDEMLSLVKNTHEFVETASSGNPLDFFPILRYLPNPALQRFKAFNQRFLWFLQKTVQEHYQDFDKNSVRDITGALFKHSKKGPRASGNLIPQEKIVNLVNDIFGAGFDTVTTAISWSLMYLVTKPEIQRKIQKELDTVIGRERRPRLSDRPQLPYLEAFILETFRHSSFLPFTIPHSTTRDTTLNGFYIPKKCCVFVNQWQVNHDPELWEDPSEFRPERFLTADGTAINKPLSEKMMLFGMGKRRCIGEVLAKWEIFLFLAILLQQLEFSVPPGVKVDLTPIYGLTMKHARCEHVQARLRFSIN", "conditions": "microsomes; for CYP1A2 activity expressed as % Vehicle Control: human, 10 min, pH 7.4"}, "CYP3A4/5 [1]": {"test_system": "CYP3A4/5", "test": "in vitro", "conditions": "human, microsomes, pH 7.4"}, "CYP3A4/5 [2]": {"test_system": "CYP3A4/5", "test": "Direct CYP3A4/5 inhibition, midazolam 1′-hydroxylation in pooled human liver microsomes", "conditions": "pH 7.4, probe midazolam 2 μM (1′-hydroxylation)"}, "CYP2C8": {"target": "T3, CYP2C8 (Homo sapiens, UniProt P10632)", "T3 sequence (P10632 1-490)": "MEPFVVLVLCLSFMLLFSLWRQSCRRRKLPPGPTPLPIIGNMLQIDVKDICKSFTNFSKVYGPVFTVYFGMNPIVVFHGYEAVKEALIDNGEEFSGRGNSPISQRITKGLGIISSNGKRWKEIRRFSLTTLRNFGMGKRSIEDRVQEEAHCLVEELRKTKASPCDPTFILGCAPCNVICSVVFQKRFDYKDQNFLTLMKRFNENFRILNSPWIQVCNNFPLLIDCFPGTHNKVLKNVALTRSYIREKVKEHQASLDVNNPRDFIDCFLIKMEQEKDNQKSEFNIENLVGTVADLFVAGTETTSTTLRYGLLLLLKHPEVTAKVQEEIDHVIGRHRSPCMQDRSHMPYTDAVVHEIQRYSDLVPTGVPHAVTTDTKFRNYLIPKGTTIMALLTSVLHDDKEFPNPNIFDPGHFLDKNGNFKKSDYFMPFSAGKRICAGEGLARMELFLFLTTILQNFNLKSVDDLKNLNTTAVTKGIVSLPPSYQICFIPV", "conditions": "microsomes; for CYP2C8 activity expressed as % Vehicle Control: human, 10 min, pH 7.4"}, "CYP2C9": {"target": "CYP2C9 (Homo sapiens, UniProt P11712)", "sequence (P11712 whole entry)": "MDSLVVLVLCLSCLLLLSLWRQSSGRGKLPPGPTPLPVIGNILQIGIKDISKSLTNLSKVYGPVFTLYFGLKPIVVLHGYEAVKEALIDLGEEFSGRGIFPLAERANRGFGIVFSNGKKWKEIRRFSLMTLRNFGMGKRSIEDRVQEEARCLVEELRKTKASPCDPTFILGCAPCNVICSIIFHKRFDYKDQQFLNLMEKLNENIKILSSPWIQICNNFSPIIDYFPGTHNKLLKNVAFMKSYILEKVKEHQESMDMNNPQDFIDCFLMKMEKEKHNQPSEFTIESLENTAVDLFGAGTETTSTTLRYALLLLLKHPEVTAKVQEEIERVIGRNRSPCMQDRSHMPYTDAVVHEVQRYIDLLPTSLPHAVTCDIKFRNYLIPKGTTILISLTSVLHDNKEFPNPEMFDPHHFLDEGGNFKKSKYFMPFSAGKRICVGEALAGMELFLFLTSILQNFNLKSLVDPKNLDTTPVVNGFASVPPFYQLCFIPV", "conditions": "for CYP2C9 activity expressed as % Vehicle Control: HLM, diclofenac"}, "CYP2C19": {"target": "CYP2C19 (Homo sapiens, UniProt P33261)", "sequence (P33261 whole entry)": "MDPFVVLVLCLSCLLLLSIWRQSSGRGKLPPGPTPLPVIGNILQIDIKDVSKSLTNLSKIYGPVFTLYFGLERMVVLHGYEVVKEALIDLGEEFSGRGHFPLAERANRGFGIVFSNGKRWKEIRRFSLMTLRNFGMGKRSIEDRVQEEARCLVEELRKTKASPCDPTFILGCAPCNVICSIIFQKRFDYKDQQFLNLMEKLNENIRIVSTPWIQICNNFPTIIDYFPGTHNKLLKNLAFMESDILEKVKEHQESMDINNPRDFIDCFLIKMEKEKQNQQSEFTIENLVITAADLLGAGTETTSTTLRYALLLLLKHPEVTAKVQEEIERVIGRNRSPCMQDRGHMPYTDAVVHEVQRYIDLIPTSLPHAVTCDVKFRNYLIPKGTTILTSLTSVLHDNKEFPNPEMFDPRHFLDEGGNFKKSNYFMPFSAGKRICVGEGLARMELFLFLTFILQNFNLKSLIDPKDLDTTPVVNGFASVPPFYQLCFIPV", "conditions": "microsomes"}, "CYP2D6": {"target": "CYP2D6 (Homo sapiens, UniProt P10635)", "sequence (P10635 whole entry)": "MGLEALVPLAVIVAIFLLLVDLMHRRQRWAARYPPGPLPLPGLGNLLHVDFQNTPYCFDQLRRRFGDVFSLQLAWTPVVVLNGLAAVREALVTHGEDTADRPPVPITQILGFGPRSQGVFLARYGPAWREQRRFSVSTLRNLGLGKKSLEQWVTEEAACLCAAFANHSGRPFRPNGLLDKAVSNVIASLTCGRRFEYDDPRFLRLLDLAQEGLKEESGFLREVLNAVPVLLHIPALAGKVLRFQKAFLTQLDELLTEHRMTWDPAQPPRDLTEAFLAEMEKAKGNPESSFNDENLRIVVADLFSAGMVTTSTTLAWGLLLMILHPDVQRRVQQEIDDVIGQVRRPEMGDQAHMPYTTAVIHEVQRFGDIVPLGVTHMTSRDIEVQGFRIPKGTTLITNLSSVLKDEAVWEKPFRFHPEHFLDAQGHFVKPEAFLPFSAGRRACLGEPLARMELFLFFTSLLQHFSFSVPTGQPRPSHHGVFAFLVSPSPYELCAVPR", "conditions": "microsomes"}, "CYP3A4/5 [3]": {"test_system": "CYP3A4/5", "conditions": "microsomes"}, "CYP3A4/5 [4]": {"test_system": "CYP3A4/5", "conditions": "microsomes", "remark": "listed apart in the source"}, "[5]": {"conditions": "in vivo, 5 mg"}}, "note": "Read-outs that look alike come from different tables or passages of the source.", "data": [{"compound": "N[C@@H]1C[C@H]1c1ccccc1", "note": "(racemic) [Tranylcypromine, reference compound]", "values": [{"measurement": "IC50", "setting": "CYP2B6", "result": 3400, "unit": "nM"}]}, {"compound": "Cc1nc2c([nH]1)c(=O)n(C)c(=O)n2Cc1ccco1", "note": "[Furafylline]", "values": [{"measurement": "CYP1A2 activity expressed as % Vehicle Control", "setting": "CYP1A2; 0.01 μM", "result": 103.9, "unit": "% Vehicle Control"}, {"measurement": "CYP1A2 activity expressed as % Vehicle Control", "setting": "CYP1A2; 0.1 μM", "result": 110.2, "unit": "% Vehicle Control"}, {"measurement": "CYP1A2 activity expressed as % Vehicle Control", "setting": "CYP1A2; 1 μM", "result": 88.5, "unit": "% Vehicle Control"}, {"measurement": "CYP1A2 activity expressed as % Vehicle Control", "setting": "CYP1A2; 10 μM", "result": 41.0, "unit": "% Vehicle Control"}, {"measurement": "CYP1A2 activity expressed as % Vehicle Control", "setting": "CYP1A2; 100 μM", "result": 10.1, "unit": "% Vehicle Control"}]}, {"compound": "CCC(C)n1ncn(-c2ccc(N3CCN(c4ccc(OCC5COC(Cn6cncn6)(c6ccc(Cl)cc6Cl)O5)cc4)CC3)cc2)c1=O", "note": "(stereo not drawn) [Itraconazole]", "values": [{"measurement": "IC50", "setting": "CYP3A4/5 [1]", "result": 30, "unit": "nM"}, {"measurement": "IC50 at 5 min", "setting": "CYP3A4/5 [2]", "result": 210, "unit": "nM"}]}, {"compound": "CC(C)(O)c1ccccc1CC[C@@H](SCC1(CC(=O)O)CC1)c1cccc(/C=C/c2ccc3ccc(Cl)cc3n2)c1", "note": "[Montelukast, reference compound]", "values": [{"measurement": "CYP2C8 activity expressed as % Vehicle Control", "setting": "CYP2C8; 0.001 μM", "result": 96.0, "unit": "% Vehicle Control"}, {"measurement": "CYP2C8 activity expressed as % Vehicle Control", "setting": "CYP2C8; 0.01 μM", "result": 91.3, "unit": "% Vehicle Control"}, {"measurement": "CYP2C8 activity expressed as % Vehicle Control", "setting": "CYP2C8; 0.1 μM", "result": 66.2, "unit": "% Vehicle Control"}, {"measurement": "CYP2C8 activity expressed as % Vehicle Control", "setting": "CYP2C8; 1 μM", "result": 13.3, "unit": "% Vehicle Control"}, {"measurement": "CYP2C8 activity expressed as % Vehicle Control", "setting": "CYP2C8; 10 μM", "result": 1.3, "unit": "% Vehicle Control"}]}, {"compound": "Nc1ccc(S(=O)(=O)Nc2ccnn2-c2ccccc2)cc1", "note": "[Sulfaphenazole, reference compound]", "values": [{"measurement": "CYP2C9 activity expressed as % Vehicle Control", "setting": "CYP2C9; positive control 0.0025 μM", "result": 102.1, "unit": "% Vehicle Control"}, {"measurement": "CYP2C9 activity expressed as % Vehicle Control", "setting": "CYP2C9; positive control 0.025 μM", "result": 95.7, "unit": "% Vehicle Control"}, {"measurement": "CYP2C9 activity expressed as % Vehicle Control", "setting": "CYP2C9; positive control 0.25 μM", "result": 47.2, "unit": "% Vehicle Control"}, {"measurement": "CYP2C9 activity expressed as % Vehicle Control", "setting": "CYP2C9; positive control 2.5 μM", "result": 10.1, "unit": "% Vehicle Control"}, {"measurement": "CYP2C9 activity expressed as % Vehicle Control", "setting": "CYP2C9; positive control 25 μM", "result": 1.9, "unit": "% Vehicle Control"}]}, {"compound": "phenylcapsaicyn", "values": [{"measurement": "Ki", "setting": "CYP1A2", "result": 340, "unit": "nM"}, {"measurement": "IC50", "setting": "CYP2B6", "result": "> 50000", "unit": "nM"}, {"measurement": "Inhibition of CYP2B6 in words", "setting": "CYP2B6", "result": "no significant inhibition"}, {"measurement": "IC50", "setting": "CYP2C8", "result": "> 50000", "unit": "nM"}, {"measurement": "Inhibition of CYP2C8 in words", "setting": "CYP2C8", "result": "no significant inhibition"}, {"measurement": "IC50", "setting": "CYP2C9; microsomes", "result": "> 50000", "unit": "nM"}, {"measurement": "Inhibition of CYP2C9 in words", "setting": "CYP2C9; microsomes", "result": "no significant inhibition"}, {"measurement": "IC50", "setting": "CYP2C19", "result": "> 50000", "unit": "nM"}, {"measurement": "Inhibition of CYP2C19 in words", "setting": "CYP2C19", "result": "no significant inhibition"}, {"measurement": "Ki", "setting": "CYP2D6", "result": 550, "unit": "nM"}, {"measurement": "IC50", "setting": "CYP3A4/5 [3]", "result": "> 50000", "unit": "nM"}, {"measurement": "Inhibition of CYP3A4/5 in words (midazolam)", "setting": "CYP3A4/5 [3]", "result": "no significant inhibition"}, {"measurement": "IC50", "setting": "CYP3A4/5 [4]", "result": "> 50000", "unit": "nM"}, {"measurement": "Inhibition of CYP3A4/5 in words (testosterone)", "setting": "CYP3A4/5 [4]", "result": "no significant inhibition"}, {"measurement": "Cmax", "setting": "[5]", "result": "~600", "unit": "nM"}]}]}
